Test results as given in US5518988A, “Method of counteracting an ethylene response in plants” (North Carolina State University, priority 1994, dated 1996).

Legend:
ethylene receptor [1] = assay: Diffusion of 3H 1-methylcyclopropene from carnation petals; assay type: binding, carnation (Dianthus caryophyllus)
Procedure: In order to label the ethylene receptor, 1-methylcyclopropene was labelled with tritium and the specific activity obtained was 60 mCi/mM. An eventual diffusion of the compound was studied on carnations. The flowers were treated with 1-methylcyclopropene, and with large amounts of ethylene. Control flowers were treated with 1-methylcyclopropene alone. The diffusion was followed for 7 days. […] When the experiment was made at 4° C., the diffusion was nonexistent.

ethylene receptor [2] = assay: 14C-ethylene binding to carnation petals; design: species or system carnation (Dianthus caryophyllus); details: flowers treated with 5 nl/l, stored 4 days at room temperature at 4° C. before binding experiment (FIG. 4)
Procedure: Triplicate samples of 3 g cut carnations' petals were placed in a 2.51 desiccator containing ^14 C-ethylene-mercuric perchlorate complex (110 mCi/mM) in a 25 ml Erlenmeyer flask. Then, an excess of […] lithium chloride was added to the ethylene-mercuric perchlorate complex to release the gaseous ethylene. The mixture was stirred for 6 minutes. To determine the amount of binding, 3 ml of unlabelled ethylene was added in one desiccator. After 2 hours of ethylene exposure, the desiccators were opened and the samples were aerated for 4 minutes. Each sample was then placed in a 250 ml jar. 0.2 Ml of mercuric perchlorate on a 0.5 cm^2 piece of fiber-glass filter in a scintillation vial was then added. After 18 hours, the scintillation vials were removed, scintillation fluid added and the radioactivity counted for each sample.
To determine if the 1-methylcyclopropene acted on the ethylene receptor, flowers were treated with 5 nl/l of 1-methylcyclopropene and stored for 4 days at room temperature at 4° C. before the ethylene binding experiment. Carnation petals preincubated with 1-methylcyclopropene and control petals which had not been incubated with 1-methylcyclopropene were then incubated in the presence of ^14 C-ethylene. One sample representing the control was incubated with a saturating concentration of unlabelled ethylene in the presence of ^14 C-ethylene. […]

carnations [3] = assay: Ethylene production of carnation flowers; assay type: in vivo, carnation (Dianthus caryophyllus); details: compound applied at the ethylene climacteric; thereafter ethylene production measured
Procedure: Ethylene production was followed from the beginning of the ethylene climacteric production. […] 1- Methylcyclopropene was applied. Thereafter ethylene production was measured.

tomatoes = assay: Tomato ripening after ethylene treatment; assay type: in vivo, tomatoes (Lycopersicon esculentum); details: applied for 12 hours before the ethylene treatment
Procedure: Tomato seeds were washed with NaOCl (10%) and rinsed with water. The seeds were placed on wetted filter paper with 10 mM sodium phosphate buffer at pH 5.8. The germination was done in the dark. When the seedlings were about 1 mm height, 30 seeds by sample were placed on wet filter paper in a 0.5 l jar. 1-Methylcyclopropene was added over 24 hours before adding 10 μl/l ethylene for 5 days.
When 1-methylcyclopropene was applied for 12 hours before the ethylene treatment, only 10 nl/l of compound was enough to preserve tomatoes.

carnations [4] = assay: Protection of in vivo cut carnations against exogenous ethylene (pre-treatment with compound); design: species or system carnation (Dianthus caryophyllus)
Procedure: The treatment of carnations with ethylene hastens the process of senescence, producing a petal in-rolling phenomena (Halevy and Mayak, 1981). Carnations at stage II, with low ethylene production and no visible signs of senescence (Woodson, 1987) were treated with 1-methylcyclopropeneat different concentration for 6 hours before adding […] of ethylene for 1 hour.
1-Methylcyclopropene was added for various times before the application of exogenous ethylene. […] Treatment with about 250 to 300 nl/l of 1-methylcyclopropene for five minutes was enough to protect the flowers. Treated for 24 hours, with 0.5 nl/l protected against 1 ml/l of ethylene.
Flowers were treated with 5 nl/l of product during 6 hours, then, stored for 10 days at room temperature. One ml/l of ethylene was then added over 18 hours. Ethylene had no effect on the treated carnations 10 days after the 1-methylcyclopropene treatment (data not shown). The binding of 1-methylcyclopropene on carnations seems to be irreversible.
Cut carnations at stage I and stage III were treated with 1-methylcyclopropene. For young carnations, the concentration of 1-methylcyclopropene giving a protective effect was about 1.25 and 2.5 nl/l. For these, the protection against ethylene was total. For old carnations, rates between 2.5 and 5 nl/l of 1-methylcyclopropene were sufficient to give a response, but total protection was not achieved. Total protection of older carnations was only achieved with 10 nl/l of 1-methylcyclopropene (data not shown).

Bananas = assay: Banana ripening (chlorophyll disappearance); assay type: in vivo, bananas (Musa sapientum)
Procedure: Bananas were individually placed in a 3 l jar. 1-Methylcyclopropene was injected into the jar at a determined concentration. The plant material was then aerated and 1 ml/l of ethylene was added for 12 hours. Controls were held in jars without chemical treatment. Chlorophyll measurement was made as previously described in Sisler and Wood, 1988). The experiment was done 7 days after 1-methylcyclopropene treatment.

carnations [5] = assay: Stopping the senescent process (petal in-rolling) of carnations due to exogenous and endogenous ethylene; assay type: in vivo, carnation (Dianthus caryophyllus)
Procedure: Flowers in a pre-senescent stage were treated with 5 nl/l of 1-methylcyclopropene and the senescent process was observed.
The carnations need to have an exogenous ethylene exposure at least for 6 hours to have a visible sign of senescence. Treatment with 3 nl/l of 1-methylcyclopropene is enough to stop that process. […] 1-methylcyclopropene seems to reduce and prevent the autocatalytic production of ethylene.
The ability of 1-methylcyclopropene to stop the senescence process was observed by adding ethylene over 6 hours. […] Thereafter 1-methylcyclopropene was added. The process of senescence was stopped by the binding of 1-methylcyclopropene on the ethylene receptor and giving a molecular response.

Row | Structure (SMILES) | diffusion of the labelled compound from carnations (ethylene receptor [1]; experiment made at 4° C.) | diffusion of the labelled compound from carnations (ethylene receptor [1]; followed for 7 days, flowers without ethylene treatment) | specific 14C-ethylene binding (ethylene receptor [2]) | ethylene production, control versus treated flowers (FIG. 3) (carnations [3]) | concentration enough to preserve tomatoes (tomatoes) [nl/l] | effect of ethylene on treated carnations 10 days after treatment (carnations [4]; 5 nl/l for 6 hours, stored 10 days at room temperature, then 1 ml/l ethylene over 18 hours) | minimal concentration preventing the ethylene process, compared with that at the other ethylene levels (carnations [4]; flowers treated with 1 ml/l of ethylene) | concentration to protect the flower against ethylene action, compared with STS, DACP or NBD (carnations [4]; in vivo carnations) | concentration achieving total protection (carnations [4]; old cut carnations (stage III)) [nl/l] | minimal concentration preventing the ethylene process (flowers looked like control without ethylene) (carnations [4]; stage II carnations, 6 hours treatment before 10 or 1000 ml/l ethylene for 1 hour, after 4 days) [nl/l] | concentration needed to protect the flowers against exogenous ethylene (carnations [4]; treated for 24 hours, against 1 ml/l of ethylene) [nl/l] | extent of protection against ethylene (carnations [4]; young cut carnations (stage I), about 1.25 and 2.5 nl/l) | Ki (chlorophyll measurement) (Bananas; 1 ml/l ethylene for 12 hours, measured 7 days after treatment) [nl/l] | Ki for chlorophyll disappearance (Bananas; experiments done in the dark) [ul/l] | Ki for chlorophyll disappearance (Bananas; experiments done in the light) [ul/l] | time for which ripening was prevented (Bananas; treated bananas, fruits turned brown after this period) | senescent process of flowers treated in a pre-senescent stage (carnations [5]; 5 nl/l, observed 15 days later, untreated control in-rolled one day later) | concentration enough to stop the senescence process due to exogenous ethylene exposure (carnations [5]; after exogenous ethylene exposure of at least 6 hours) [nl/l] | process of senescence after in-rolling had begun (carnations [5]; ethylene over 6 hours, in-rolling begun, thereafter compound added) | petal in-rolling of carnations treated with ethylene and then compound (carnations [5]; ethylene, then 1-methylcyclopropene)
1 | CC1=CC1 [^3 H 1-methylcyclopropene] | nonexistent | a little diffusion | – | – | – | – | – | – | – | – | – | – | – | – | – | – | – | – | – | –
2 | CC1=CC1 [1-methylcyclopropene] | – | – | totally inhibited | considerably lower | 10 | no effect | the same | much lower | 10 | 2.5 | 0.5 | total | 0.4 | 40 | 1.2 | about 15 days | did not show a senescent process | 3 | stopped | no visible sign of the phenomenon
